Results from patent US10732172B1, “Methods, systems, and compositions for determining blood clot formation, and uses thereof” (President and Fellows of Harvard College, priority 2015, dated 2020).

How the values were obtained:
HUVECs and platelets = test: Platelet adhesion and dynamics on TNF-α stimulated endothelium (living or fixed), whole blood perfusion; assay type: cell-based, human; settings: TNF-α 5 ng/ml before fixation; kept 1 day or 5 days; versus no TNF-α
[1] = tested on: primary alveolar epithelial cells (AE) and endothelial cells with whole blood; test: Lung-on-a-chip stimulated with TNF-α or LPS: vascular ICAM-1, P-E, clots, gap junctions; assay type: cell-based, human
Excerpt: Specifically, the analysis includes a method to quantitate platelet function in flow chambers and microfluidic devices that has been primarily limited to analyzing platelet adhesion on bare collagen surfaces. To analyze platelet-endothelial dynamics that will act as a robust readout of physiologically-relevant clotting, an automated imaging program creates an image time-series, K(x, y, t), containing a 10-frame panorama in space. Images are acquired at a frame rate of 2 panoramic images per minute, for a total time of 15 minutes. A non-dimensional stochastic index is derived to quantitate platelet endothelial dynamics (“P-E”), which is the interpercentile range of a coefficient of variance of the image time-series: P-E=range(CV(K(x,y,t) (1) A feature of this analytical readout is that instead of an “ensemble averaging,” the method incorporates the cell-surface interactions at the pixel level and quantitates statistical “dispersion” of interactions.
After plasma treatment of the microfluidic devices, the two chambers are pre-treated with 10% (3-aminopropyl)-trimethoxysilane (APTMES, e.g., from Sigma) in 100% anhydrous alcohol (e.g., from Sigma) for 10-20 minutes. The chambers are flushed sequentially with 70% ethanol in water and 100% ethanol, and then dried at 60-80° C. for two hours. Then, a mixture of rat tail collagen I (100 μg ml^−1 in PBS, from BD Biosciences) and fibronectin (e.g., 30 μg/ml in PBSm, from BD Biosciences) is introduced in both chambers of the microfluidic device. The microfluidic device is incubated at 37° C. for at least 2 hours before flushing with PBS or EGM-2 cell culture media.
Some of the microfluidic devices are used with collagen coating alone (without cells). In other devices, HUVECs (e.g. from Lonza) are cultured in Endothelial Growth Medium-2 (EGM-2, from Lonza) and used between certain passages. The cells (5-10×10^6 cells/ml) are introduced into the collagen-coated channels and incubated for 20 minutes at 37° C. to promote cell attachment before a second similar HUVEC suspension is, then, introduced. The microfluidic devices are incubated upside down for an additional 20 minutes to seed the cells on the ceiling and walls of the lower chamber.
The lower chamber is then flushed with EGM-2 and, then, a suspension of primary alveolar epithelial cells (e.g., from ScienCell Research Labs, Carlsbad, Calif.; 5-6×10^6 cells ml^−1) is introduced into the top chamber of the device. After a few hours, the top and bottom chambers are flushed with their respective media, and the microfluidic devices are incubated at 37° C. under 5% CO2 for 3 days (with media being replaced each day once). On day 4, the bottom vascular chamber is set on perfusion of EGM-2 media (e.g., 30 μL hr^−1; 0.5% fetal bovine serum) to provide shear to the HUVEC vessel chamber and a continuous supply of fresh media.
On day 6, the epithelial cell media in the top chamber is aspirated to create the air-liquid interface of the alveoli. Hereon, the cell culture continues for another 6-8 days, after which, in some cases, the top chamber is supplemented with 0, 5, or 100 ng ml^−1 TNF-α in PBS (e.g., from Sigma) overnight or LPS (e.g., 100 ng ml^−1 of E. Coli, from Sigma,) for 2 hours to cause cell activation. The LPS is sonicated in ultrasonic bath for about 20-30 minutes before introducing into the microfluidic device. After stimulation, the top chamber is clamped, the bottom chamber is rinsed with culture media, a reservoir cut from a 3 ml slip-tip syringe (e.g., from BD) is inserted on one end of the lower chamber, and a 1/16-inch male luer connector (e.g., from Qosina Corp) is inserted on the other end of the lower chamber.
When analyzing the formation of fibrin, blood samples re added with 15 μg ml^−1 of fluorescently labeled fibrinogen (e.g., Alexa 488 from Invitrogen). […]

## tumor necrosis factor-α [TNF-α]
HUVECs and platelets
  platelet adhesion rate on fixed HUVECs: significantly higher
[1]; TNF-α on alveolar compartment containing AE
  vascular ICAM-1 expression in lung-on-chip: increases in a dose-dependent manner
[1]; TNF-α stimulated versus untreated
  platelet-endothelial dynamics in lung-on-chip: follows a similar trend as ICAM-1
[1]; TNF-α stimulated, end of assay
  clots (platelets and fibrin) in vascular compartment of lung-on-chip: significant amount of clots are observed
